# Measured values taken from patent US10800792B2, “Inhibitors of Bruton's tyrosine kinase and method of their use” (JANSSEN PHARMACEUTICA NV, priority 2015, dated 2020).
# Target: unphosphorylated-BTK kinase domain (UP-BTK), GST-tagged human BTK (389-659aa) (Homo sapiens (Human), UniProt Q06187)
# Assay: BTK kinase Lanthascreen binding assay
# Details: Lanthascreen tracer competition, 60 minutes incubation; pIC50 = negative log of the IC50 in molar
# In short: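 Tracer-displacement binding assay against the non-phosphorylated enzyme, read by Lanthascreen. Reported: pIC50.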
# Sequence of unphosphorylated-BTK kinase domain (UP-BTK), GST-tagged human BTK (389-659aa) (Q06187 389-659): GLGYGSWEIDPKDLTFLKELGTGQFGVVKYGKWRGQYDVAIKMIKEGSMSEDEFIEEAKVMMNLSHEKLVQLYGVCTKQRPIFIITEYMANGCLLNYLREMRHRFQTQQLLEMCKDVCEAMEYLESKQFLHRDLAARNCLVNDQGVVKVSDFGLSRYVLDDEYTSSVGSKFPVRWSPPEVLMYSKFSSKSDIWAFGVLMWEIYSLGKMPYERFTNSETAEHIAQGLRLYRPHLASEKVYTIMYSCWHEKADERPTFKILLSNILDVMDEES
row,Structure (SMILES),BTK_I_binding pIC50
1,"CC(=O)N1CCC[C@@H](NC(=O)c2sc3nccc4c3c2NC(=O)N4c2ccc(Oc3cccnn3)cc2)C1 [Example 812, (R)—N-(1-Acetylpiperidin-3-yl)-4-oxo-5-(4-(pyridazin-3-yloxy)phenyl)-4,5-dihydro-3H-1-thia-3,5,8-triazaacenaphthylene-2-carboxamide]",<6
2,"CC(=O)N1CC[C@@H](NC(=O)c2sc3nccc4c3c2NC(=O)N4c2ccc(Oc3ccccc3)cc2)C1 [Example 888, (R)—N-(1-Acetylpyrrolidin-3-yl)-4-oxo-5-(4-phenoxyphenyl)-4,5-dihydro-3H-1-thia-3,5,8-triazaacenaphthylene-2-carboxamide]",7.0
3,"O=C(N[C@@H]1CCCN(C(=O)/C=C/CO)C1)c1sc2nccc3c2c1NC(=O)N3c1ccc(Oc2ccccc2)cc1 [Example 590, (R,E)-N-(1-(4-Hydroxybut-2-enoyl)piperidin-3-yl)-4-oxo-5-(4-phenoxyphenyl)-4,5-dihydro-3H-1-thia-3,5,8-triazaacenaphthylene-2-carboxamide]",7.5
4,"CCC(=O)N1CCC[C@@H](NC(=O)c2sc3nccc4c3c2NC(=O)N4c2ccc(Oc3cccnn3)cc2C)C1 [Example 809, (R)-5-(2-Methyl-4-(pyridazin-3-yloxy)phenyl)-4-oxo-N-(1-propionylpiperidin-3-yl)-4,5-dihydro-3H-1-thia-3,5,8-triazaacenaphthylene-2-carboxamide]",<6
5,"C=CC(=O)N1CCC[C@@H](NC(=O)c2sc3nccc4c3c2NC(=O)N4c2cnc(OC)nc2)C1 [Example 619, (R)—N-(1-Acryloylpiperidin-3-yl)-5-(2-methoxypyrimidin-5-yl)-4-oxo-4,5-dihydro-3H-1-thia-3,5,8-triazaacenaphthylene-2-carboxamide]",<6
6,"C=CC(=O)N1CCC[C@@H](NC(=O)c2sc3nccc4c3c2NC(=O)N4c2ccc(Oc3ccccc3)c(Cl)c2)C1 [Example 686, (R)—N-(1-Acryloylpiperidin-3-yl)-5-(3-chloro-4-phenoxyphenyl)-4-oxo-4,5-dihydro-3H-1-thia-3,5,8-triazaacenaphthylene-2-carboxamide]",7.6
7,"C=CC(=O)N1CCC[C@@H](NC(=O)c2sc3nccc4c3c2NC(=O)N4c2ccc(OC)cc2C)C1 [Example 694, (R)—N-(1-Acryloylpiperidin-3-yl)-5-(4-methoxy-2-methylphenyl)-4-oxo-4,5-dihydro-3H-1-thia-3,5,8-triazaacenaphthylene-2-carboxamide]",7.1
8,"C=CC(=O)N1CCCC(Nc2sc3nccc4c3c2NC(=O)N4c2ccc(Oc3ccccc3)cc2C)C1 (centres unmarked) [Example 600, 2-((1-Acryloylpiperidin-3-yl)amino)-5-(2-methyl-4-phenoxyphenyl)-3H-1-thia-3,5,8-triazaacenaphthylen-4(5H)-one]",6.5
9,"Cc1cc(Oc2ccccc2)ccc1N1C(=O)Nc2c(C(=O)N[C@@H]3CCCN(C(=O)C(C#N)=CC4(C)COC4)C3)sc3nccc1c23 (single isomer, unassigned) [Example 782, (R,EZ)—N-(1-(2-Cyano-3-(3-methyloxetan-3-yl)acryloyl)piperidin-3-yl)-5-(*S)-(2-methyl-4-phenoxyphenyl)-4-oxo-4,5-dihydro-3H-1-thia-3,5,8-triazaacenaphthylene-2-carboxamide]",7.7
10,"Cc1nc(Oc2ccccc2)ccc1N1C(=O)Nc2c(C(=O)N[C@@H]3CCOC3)sc3nccc1c23 (single isomer, unassigned) [Example 793, (R)-5-(*S)-(2-Methy-6-phenoxypyridin-3-yl)-4-oxo-N-(tetrahydrofuran-3-yl)-4,5-dihydro-3H-1-thia-3,5,8-triazaacenaphthylene-2-carboxamide]",6.8
11,"C=CC(=O)N1CCC[C@@H](NC(=O)c2sc3nccc4c3c2NC(=O)N4c2ccc(Oc3cccc(C)n3)cc2C)C1 [Example 772, (R)—N-(1-Acryloylpiperidin-3-yl)-5-(2-methyl-4-((6-methylpyridin-2-yl)oxy)phenyl)-4-oxo-4,5-dihydro-3H-1-thia-3,5,8-triazaacenaphthylene-2-carboxamide]",7.7

# Same assay, conditions: pIC50 = negative log of the IC50 in molar; 60 minutes incubation, 50 nM Tracer 236
row,Structure (SMILES),BTK_I_binding pIC50
1,"C=CC(=O)N1CC[C@@H](NC(=O)c2sc3nccc4c3c2NC(=O)N4c2ccc(CC)cc2C)C1 [Example 119, (R)—N-(1-Acryloylpyrrolidin-3-yl)-5-(4-ethyl-2-methylphenyl)-4-oxo-4,5-dihydro-3H-1-thia-3,5,8-triazaacenaphthylene-2-carboxamide]",6.6
2,C=CC(=O)N1CCC[C@@H](NC(=O)c2sc3nccc4c3c2NC(=O)N4c2ccc(OC)cc2)C1 [Example 254],6.6
3,"Cc1cc(Oc2ccccc2)ccc1N1C(=O)Nc2c(C(=O)N[C@@H]3CCCN(C(=O)CCN)C3)sc3nccc1c23 [Example 163, (R)—N-(1-(3-Aminopropanoyl)piperidin-3-yl)-5-(2-methyl-4-phenoxyphenyl)-4-oxo-4,5-dihydro-3H-1-thia-3,5,8-triazaacenaphthylene-2-carboxamide]",7.2
4,"Cc1cc(Oc2ccccc2)ccc1N1C(=O)Nc2c(C(=O)N[C@@H]3CCCN(C(=O)C4CCOCC4)C3)sc3nccc1c23 [Example 219, (R)-5-(2-Methyl-4-phenoxyphenyl)-4-oxo-N-(1-(tetrahydro-2H-pyran-4-carbonyl)piperidin-3-yl)-4,5-dihydro-3H-1-thia-3,5,8-triazaacenaphthylene-2-carboxamide]",6.9
5,"C=CC(=O)N1CC[C@@H](NC(=O)c2sc3nccc4c3c2NC(=O)N4c2ccc(Oc3ccccc3)cc2C)C1 [Example 11, (R)—N-(1-Acryloylpyrrolidin-3-yl)-5-(2-methyl-4-phenoxyphenyl)-4-oxo-4,5-dihydro-3H-1-thia-3,5,8-triazaacenaphthylene-2-carboxamide]",7.9
6,"Cc1cc(Oc2ccccc2)ccc1N1C(=O)Nc2c(C(=O)NC3CCCN(C)CC3)sc3nccc1c23 (centres unmarked) [Example 187, 5-(2-Methyl-4-phenoxyphenyl)-N-(1-methylazepan-4-yl)-4-oxo-4,5-dihydro-3H-1-thia-3,5,8-triazaacenaphthylene-2-carboxamide]",6.7
7,"COCCC(=O)N1C[C@@H](F)[C@@H](NC(=O)c2sc3nccc4c3c2NC(=O)N4c2ccc(Oc3ccccc3)cc2C)C1 [Example 94, N-((3S,4R)-4-Fluoro-1-(3-methoxypropanoyl)pyrrolidin-3-yl)-5-(2-methyl-4-phenoxyphenyl)-4-oxo-4,5-dihydro-3H-1-thia-3,5,8-triazaacenaphthylene-2-carboxamide]",7.6
8,"Cc1cc(Oc2ccccc2)ccc1N1C(=O)Nc2c(C(=O)NC3CNC(=O)C3)sc3nccc1c23 (centres unmarked) [Example 202, 5-(2-Methyl-4-phenoxyphenyl)-4-oxo-N-(5-oxopyrrolidin-3-yl)-4,5-dihydro-3H-1-thia-3,5,8-triazaacenaphthylene-2-carboxamide]",6.7

# Same assay, conditions: unphosphorylated-BTK kinase domain, 50 nM Tracer 236, 60 minutes; pIC50 = negative log of the IC50 in molar
row,Structure (SMILES),BTK_I_binding pIC50
1,"C=CC(=O)N1C[C@H](F)C[C@@H](NC(=O)c2sc3nccc4c3c2NC(=O)N4c2ccc(Oc3ccccc3)cc2C)C1 (relative stereo) [Example 499, N-((3R,5R)-1-Acryloyl-5-fluoropiperidin-3-yl)-5-(*S)-(2-methyl-4-phenoxyphenyl)-4-oxo-4,5-dihydro-3H-1-thia-3,5,8-triazaacenaphthylene-2-carboxamide]",7.9
2,"Cc1cc(Oc2ccccc2)ccc1N1C(=O)Nc2c(C(=O)N[C@@H]3CCCN(C(=O)[C@@H](C)CO)C3)sc3nccc1c23 [Example 547, N—((R)-1-((S)-3-Hydroxy-2-methylpropanol)piperidin-3-yl)-5-(2-methyl-4-phenoxyphenyl)-4-oxo-4,5-dihydro-3H-1-thia-3,5,8-triazaacenaphthylene-2-carboxamide]",7.4
3,"CN(C)C/C=C/C(=O)N1CCC[C@@H](NC(=O)c2sc3nccc4c3c2NC(=O)N4c2ccc(Oc3ccccc3)cc2)C1 [Example 373, (R,E)-N-(1-(4-(Dimethylamino)but-2-enoyl)piperidin-3-yl)-4-oxo-5-(4-phenoxyphenyl)-4,5-dihydro-3H-1-thia-3,5,8-triazaacenaphthylene-2-carboxamide]",7.3
4,"O=C(N[C@@H]1CCCNC1)c1sc2nccc3c2c1NC(=O)N3c1ccc2sccc2c1 [Example 410, (R)-5-(Benzo[b]thiophen-5-yl)-4-oxo-N-(piperidin-3-yl)-4,5-dihydro-3H-1-thia-3,5,8-triazaacenaphthylene-2-carboxamide]",5.0
5,"Cc1cc(Oc2ccccc2)ccc1N1C(=O)Nc2c(C(=O)N[C@@H]3CCCN(C(=O)/C=C/CO)C3)sc3nccc1c23 (single isomer, unassigned) [Example 503, (R,E)-N-(1-(4-Hydroxybut-2-enoyl)piperidin-3-yl)-5-(*S)-(2-methyl-4-phenoxyphenyl)-4-oxo-4,5-dihydro-3H-1-thia-3,5,8-triazaacenaphthylene-2-carboxamide]",7.8

# Same assay, conditions: unphosphorylated-BTK kinase domain, 60 minutes incubation, 50 nM Tracer 236; pIC50 = negative log of the IC50 in molar
row,Structure (SMILES),BTK_I_binding pIC50
1,"C=CC(=O)N1CCC[C@@H](NC(=O)c2sc3nccc4c3c2NC(=O)N4c2ccc(N)cc2)C1 [Example 948, (R)—N-(1-Acryloylpiperidin-3-yl)-5-(4-aminophenyl)-4-oxo-4,5-dihydro-3H-1-thia-3,5,8-triazaacenaphthylene-2-carboxamide]",5.2
2,"C=CC(=O)N1CCC(NC(=O)c2sc3nccc4c3c2NC(=O)N4c2ccc(Oc3ccccc3)cc2C)CC1 [Example 929, N-(1-Acryloylpiperidin-4-yl)-5-(2-methyl-4-phenoxyphenyl)-4-oxo-4,5-dihydro-3H-1-thia-3,5,8-triazaacenaphthylene-2-carboxamide]",6.1
